# Read-outs that look alike come from different tables or passages of the source.
# Key:
# Assay in all cases: SelectScreen Z-LYTE kinase activity assay (SI Table 6)
# Type in all cases: biochemical
# [1] = target: protein kinases of the Z-LYTE panel (Homo sapiens, UniProt P09619)
# Summary of the method: (§1)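 Kinases in the SelectScreen panel (Adapta, LanthaScreen binding, Z-LYTE formats) were tested against compound at 1 μM. Separately, ATM (100 nM, 5 μM GST-p53, 1 mM ATP, 30 min, 30°C) and mTORC1 (50 nM, 15 μM 4E-BP1, 250 μM ATP, 3 h) were run with 200 μM compound. Those products were read on Phos-tag gels.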
# [2] = target: protein kinases of the Z-LYTE panel (Homo sapiens, UniProt P21802)
# Summary of the method: as §1
# [3] = target: protein kinases of the Z-LYTE panel (Homo sapiens, UniProt Q9HCP0)
# Summary of the method: as §1
# [4] = target: protein kinases of the Z-LYTE panel (Homo sapiens, UniProt P12931)
# Summary of the method: as §1
# [5] = target: protein kinases of the Z-LYTE panel (Homo sapiens, UniProt O60674)
# Summary of the method: as §1
# [6] = target: protein kinases of the Z-LYTE panel (Homo sapiens, UniProt P54646)
# Summary of the method: as §1
# [7] = target: protein kinases of the Z-LYTE panel (Homo sapiens, UniProt P08581)
# Summary of the method: as §1
# [8] = target: protein kinases of the Z-LYTE panel (Homo sapiens, UniProt P78527)
# Summary of the method: as §1
# [9] = target: protein kinases of the Z-LYTE panel (Homo sapiens, UniProt Q05397)
# Summary of the method: as §1
# [10] = target: protein kinases of the Z-LYTE panel (Homo sapiens, UniProt Q13464)
# Summary of the method: as §1
# [11] = target: protein kinases of the Z-LYTE panel (Homo sapiens, UniProt P06493)
# Summary of the method: as §1
# [12] = target: protein kinases of the Z-LYTE panel (Homo sapiens, UniProt P07947)
# Summary of the method: as §1
# [13] = target: T1, protein kinases of the Z-LYTE panel (Homo sapiens, UniProt O00141)
# T1 sequence (O00141 1-431): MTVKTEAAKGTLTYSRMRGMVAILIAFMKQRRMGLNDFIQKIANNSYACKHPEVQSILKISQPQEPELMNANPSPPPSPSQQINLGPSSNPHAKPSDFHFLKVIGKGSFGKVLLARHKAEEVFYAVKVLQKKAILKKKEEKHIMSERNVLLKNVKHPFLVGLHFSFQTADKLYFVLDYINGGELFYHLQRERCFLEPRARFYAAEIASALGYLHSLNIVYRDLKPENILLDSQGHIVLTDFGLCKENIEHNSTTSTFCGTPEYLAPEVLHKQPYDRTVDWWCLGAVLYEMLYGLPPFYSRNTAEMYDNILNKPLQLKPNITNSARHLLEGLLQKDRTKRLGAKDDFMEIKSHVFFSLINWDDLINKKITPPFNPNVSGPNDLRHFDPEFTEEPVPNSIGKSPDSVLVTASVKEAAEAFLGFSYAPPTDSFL
# Summary of the method: as §1
# [14] = target: protein kinases of the Z-LYTE panel (Homo sapiens, UniProt Q13177)
# Summary of the method: as §1
# Chain of protein kinases of the Z-LYTE panel (Homo sapiens, UniProt P07947) (P07947 whole entry): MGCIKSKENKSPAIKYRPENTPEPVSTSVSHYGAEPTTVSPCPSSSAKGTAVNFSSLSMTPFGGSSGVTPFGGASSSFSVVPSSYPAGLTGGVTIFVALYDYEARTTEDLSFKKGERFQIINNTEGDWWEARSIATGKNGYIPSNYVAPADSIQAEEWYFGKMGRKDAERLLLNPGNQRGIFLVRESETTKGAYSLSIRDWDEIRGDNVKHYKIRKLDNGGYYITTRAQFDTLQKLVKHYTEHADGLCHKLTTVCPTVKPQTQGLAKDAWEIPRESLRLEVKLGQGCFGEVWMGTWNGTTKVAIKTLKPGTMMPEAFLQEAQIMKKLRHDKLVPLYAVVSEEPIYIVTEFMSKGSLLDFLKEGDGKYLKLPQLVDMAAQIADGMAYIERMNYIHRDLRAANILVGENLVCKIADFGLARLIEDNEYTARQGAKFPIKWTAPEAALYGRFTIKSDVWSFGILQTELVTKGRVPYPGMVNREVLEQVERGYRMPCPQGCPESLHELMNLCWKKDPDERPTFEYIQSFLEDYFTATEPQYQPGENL
# Chain of protein kinases of the Z-LYTE panel (Homo sapiens, UniProt P08581) (P08581 25-1390): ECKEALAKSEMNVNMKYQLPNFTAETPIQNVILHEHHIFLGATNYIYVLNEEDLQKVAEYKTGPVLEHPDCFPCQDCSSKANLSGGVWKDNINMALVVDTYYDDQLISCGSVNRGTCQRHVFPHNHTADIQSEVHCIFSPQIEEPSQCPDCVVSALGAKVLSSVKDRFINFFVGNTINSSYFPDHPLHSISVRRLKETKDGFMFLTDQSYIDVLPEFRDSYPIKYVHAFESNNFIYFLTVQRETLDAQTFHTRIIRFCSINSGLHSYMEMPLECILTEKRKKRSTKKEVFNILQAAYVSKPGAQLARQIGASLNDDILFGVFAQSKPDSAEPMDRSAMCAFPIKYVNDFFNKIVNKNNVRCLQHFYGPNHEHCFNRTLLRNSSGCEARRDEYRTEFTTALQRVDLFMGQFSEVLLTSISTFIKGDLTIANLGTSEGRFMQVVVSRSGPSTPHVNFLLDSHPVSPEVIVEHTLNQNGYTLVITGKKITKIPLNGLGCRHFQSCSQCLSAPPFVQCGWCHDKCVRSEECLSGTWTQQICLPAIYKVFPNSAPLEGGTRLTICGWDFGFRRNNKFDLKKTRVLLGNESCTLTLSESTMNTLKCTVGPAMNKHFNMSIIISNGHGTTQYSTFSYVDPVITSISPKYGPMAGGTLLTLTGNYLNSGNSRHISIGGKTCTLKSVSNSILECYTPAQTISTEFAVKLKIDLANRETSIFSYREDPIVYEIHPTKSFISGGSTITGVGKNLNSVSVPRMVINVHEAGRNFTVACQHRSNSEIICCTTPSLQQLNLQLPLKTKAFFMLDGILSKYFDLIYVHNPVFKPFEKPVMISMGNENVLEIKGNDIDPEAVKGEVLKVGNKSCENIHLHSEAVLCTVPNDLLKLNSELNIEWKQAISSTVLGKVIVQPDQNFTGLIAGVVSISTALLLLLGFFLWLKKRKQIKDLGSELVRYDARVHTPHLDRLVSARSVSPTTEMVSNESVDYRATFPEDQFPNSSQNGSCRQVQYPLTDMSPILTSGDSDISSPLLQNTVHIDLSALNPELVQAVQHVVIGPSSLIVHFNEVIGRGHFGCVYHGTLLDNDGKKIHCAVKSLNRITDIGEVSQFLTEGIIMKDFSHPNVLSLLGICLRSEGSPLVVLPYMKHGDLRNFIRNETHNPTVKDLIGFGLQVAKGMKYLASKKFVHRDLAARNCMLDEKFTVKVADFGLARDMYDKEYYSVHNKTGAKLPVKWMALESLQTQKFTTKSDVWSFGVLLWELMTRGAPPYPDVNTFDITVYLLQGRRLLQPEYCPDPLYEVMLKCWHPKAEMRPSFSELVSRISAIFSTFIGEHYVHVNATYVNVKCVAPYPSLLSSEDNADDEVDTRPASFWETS
# Chain of protein kinases of the Z-LYTE panel (Homo sapiens, UniProt P21802) (P21802 22-821): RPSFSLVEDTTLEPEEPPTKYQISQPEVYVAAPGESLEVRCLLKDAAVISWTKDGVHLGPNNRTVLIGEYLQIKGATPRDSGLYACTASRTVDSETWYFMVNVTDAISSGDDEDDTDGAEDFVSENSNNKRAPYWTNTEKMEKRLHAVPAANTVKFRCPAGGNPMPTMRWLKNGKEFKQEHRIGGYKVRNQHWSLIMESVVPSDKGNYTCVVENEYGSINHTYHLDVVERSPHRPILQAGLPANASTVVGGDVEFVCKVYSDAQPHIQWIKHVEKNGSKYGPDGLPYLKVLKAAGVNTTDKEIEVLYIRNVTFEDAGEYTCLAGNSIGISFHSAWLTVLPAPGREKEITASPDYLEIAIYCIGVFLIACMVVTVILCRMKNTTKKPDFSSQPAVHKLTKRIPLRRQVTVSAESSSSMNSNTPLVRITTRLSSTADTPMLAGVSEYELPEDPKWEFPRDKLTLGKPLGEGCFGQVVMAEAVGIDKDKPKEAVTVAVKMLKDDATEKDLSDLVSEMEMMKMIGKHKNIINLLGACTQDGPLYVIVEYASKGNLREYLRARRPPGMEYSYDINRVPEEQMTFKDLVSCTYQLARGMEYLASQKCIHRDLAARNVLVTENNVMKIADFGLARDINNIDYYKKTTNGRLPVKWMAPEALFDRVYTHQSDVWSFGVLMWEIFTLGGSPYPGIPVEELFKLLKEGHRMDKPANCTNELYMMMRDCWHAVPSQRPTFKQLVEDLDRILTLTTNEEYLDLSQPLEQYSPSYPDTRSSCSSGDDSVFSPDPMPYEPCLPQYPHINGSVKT
# Chain of protein kinases of the Z-LYTE panel (Homo sapiens, UniProt Q05397) (Q05397 whole entry): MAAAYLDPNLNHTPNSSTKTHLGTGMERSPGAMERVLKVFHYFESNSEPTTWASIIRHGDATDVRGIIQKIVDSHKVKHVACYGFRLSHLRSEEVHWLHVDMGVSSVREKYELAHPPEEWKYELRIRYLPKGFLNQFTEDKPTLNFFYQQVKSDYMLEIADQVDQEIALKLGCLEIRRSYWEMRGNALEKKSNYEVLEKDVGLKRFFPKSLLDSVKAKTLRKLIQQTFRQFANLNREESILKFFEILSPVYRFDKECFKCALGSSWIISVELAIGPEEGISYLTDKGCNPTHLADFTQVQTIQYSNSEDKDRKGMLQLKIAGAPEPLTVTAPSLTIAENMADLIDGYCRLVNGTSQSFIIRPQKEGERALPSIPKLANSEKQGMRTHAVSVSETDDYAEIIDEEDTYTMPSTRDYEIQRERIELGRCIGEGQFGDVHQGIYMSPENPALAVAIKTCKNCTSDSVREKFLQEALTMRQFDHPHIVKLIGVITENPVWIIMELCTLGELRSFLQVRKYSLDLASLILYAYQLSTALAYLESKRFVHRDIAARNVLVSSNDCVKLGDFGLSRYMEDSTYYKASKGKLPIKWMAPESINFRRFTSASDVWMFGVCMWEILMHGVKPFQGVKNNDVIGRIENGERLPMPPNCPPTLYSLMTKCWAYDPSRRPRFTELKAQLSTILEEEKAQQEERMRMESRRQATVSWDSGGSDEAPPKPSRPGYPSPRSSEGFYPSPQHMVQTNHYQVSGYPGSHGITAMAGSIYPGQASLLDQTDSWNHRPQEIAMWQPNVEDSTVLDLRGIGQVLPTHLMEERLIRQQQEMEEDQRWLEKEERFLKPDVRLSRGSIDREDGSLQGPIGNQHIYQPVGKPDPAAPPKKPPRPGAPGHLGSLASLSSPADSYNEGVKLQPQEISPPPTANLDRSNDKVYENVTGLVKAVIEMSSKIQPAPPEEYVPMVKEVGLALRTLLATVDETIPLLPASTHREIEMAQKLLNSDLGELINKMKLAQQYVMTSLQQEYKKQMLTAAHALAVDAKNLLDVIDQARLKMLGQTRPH
# Chain of protein kinases of the Z-LYTE panel (Homo sapiens, UniProt P12931) (P12931 whole entry): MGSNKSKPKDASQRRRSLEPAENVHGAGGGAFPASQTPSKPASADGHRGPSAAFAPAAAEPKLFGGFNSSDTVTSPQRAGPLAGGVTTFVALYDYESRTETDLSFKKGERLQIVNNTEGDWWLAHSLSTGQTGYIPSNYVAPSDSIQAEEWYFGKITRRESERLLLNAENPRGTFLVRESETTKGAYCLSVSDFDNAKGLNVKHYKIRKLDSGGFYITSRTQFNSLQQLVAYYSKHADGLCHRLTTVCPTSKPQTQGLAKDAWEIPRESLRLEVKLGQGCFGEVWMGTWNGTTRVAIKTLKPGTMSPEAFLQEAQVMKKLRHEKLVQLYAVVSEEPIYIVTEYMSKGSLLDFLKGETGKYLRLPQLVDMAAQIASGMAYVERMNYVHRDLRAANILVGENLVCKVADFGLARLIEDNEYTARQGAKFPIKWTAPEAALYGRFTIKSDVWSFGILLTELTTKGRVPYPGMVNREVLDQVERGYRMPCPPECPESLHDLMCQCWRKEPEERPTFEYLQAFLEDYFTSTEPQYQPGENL
# Chain of protein kinases of the Z-LYTE panel (Homo sapiens, UniProt P06493) (P06493 whole entry): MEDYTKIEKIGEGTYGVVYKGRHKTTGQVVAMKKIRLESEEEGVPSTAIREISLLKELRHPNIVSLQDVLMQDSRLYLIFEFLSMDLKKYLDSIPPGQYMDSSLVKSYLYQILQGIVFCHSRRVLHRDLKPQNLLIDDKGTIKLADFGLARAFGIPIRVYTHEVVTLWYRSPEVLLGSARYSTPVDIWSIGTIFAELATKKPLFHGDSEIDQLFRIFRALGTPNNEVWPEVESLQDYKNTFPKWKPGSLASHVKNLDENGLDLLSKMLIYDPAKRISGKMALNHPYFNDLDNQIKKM
# Chain of protein kinases of the Z-LYTE panel (Homo sapiens, UniProt Q9HCP0) (Q9HCP0 whole entry): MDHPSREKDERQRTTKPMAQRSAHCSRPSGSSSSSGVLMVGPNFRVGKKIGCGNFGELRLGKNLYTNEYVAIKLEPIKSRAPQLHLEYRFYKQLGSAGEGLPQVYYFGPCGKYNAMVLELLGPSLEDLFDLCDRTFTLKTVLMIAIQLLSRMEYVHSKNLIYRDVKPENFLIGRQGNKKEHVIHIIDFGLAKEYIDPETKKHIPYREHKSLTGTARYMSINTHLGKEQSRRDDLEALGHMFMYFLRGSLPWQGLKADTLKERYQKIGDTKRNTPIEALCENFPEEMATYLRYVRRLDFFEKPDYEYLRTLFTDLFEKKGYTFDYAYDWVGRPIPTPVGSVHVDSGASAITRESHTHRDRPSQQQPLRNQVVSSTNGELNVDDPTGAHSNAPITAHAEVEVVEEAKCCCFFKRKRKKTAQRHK
smiles,measurement,setting,value
CCN1CCN(c2ccc(Nc3cc(Nc4cccc5c4N(C(C)=O)CC5)ccn3)cc2)CC1 [Compound 1938],inhibition at 1 µM,[1]; read-out: % Inhibition Point 1,7%
same,inhibition at 1 µM,[1]; read-out: % Inhibition Point 2,7%
same,inhibition at 1 µM,[1]; read-out: % Inhibition mean,7%
same,inhibition at 1 µM,[2]; read-out: % Inhibition Point 1,13%
same,inhibition at 1 µM,[2]; read-out: % Inhibition Point 2,16%
same,inhibition at 1 µM,[2]; read-out: % Inhibition mean,14%
same,inhibition at 1 µM,[3]; read-out: % Inhibition Point 1,0.622%
same,inhibition at 1 µM,[3]; read-out: % Inhibition Point 2,-0.215%
same,inhibition at 1 µM,[3]; read-out: % Inhibition mean,0.204%
same,inhibition at 1 µM,[4]; read-out: % Inhibition Point 1,28%
same,inhibition at 1 µM,[4]; read-out: % Inhibition Point 2,29%
same,inhibition at 1 µM,[4]; read-out: % Inhibition mean,29%
same,inhibition at 1 µM,[5]; read-out: % Inhibition Point 1,6.6%
same,inhibition at 1 µM,[5]; read-out: % Inhibition Point 2,9%
same,inhibition at 1 µM,[5]; read-out: % Inhibition mean,8%
same,inhibition at 1 µM,[6]; read-out: % Inhibition Point 1,8%
same,inhibition at 1 µM,[6]; read-out: % Inhibition Point 2,7%
same,inhibition at 1 µM,[6]; read-out: % Inhibition mean,8%
same,inhibition at 1 µM,[7]; read-out: % Inhibition Point 1,8%
same,inhibition at 1 µM,[7]; read-out: % Inhibition Point 2,29%
same,inhibition at 1 µM,[7]; read-out: % Inhibition mean,19%
same,inhibition at 1 µM,[8]; read-out: % Inhibition Point 1,9.47%
same,inhibition at 1 µM,[8]; read-out: % Inhibition Point 2,10%
same,inhibition at 1 µM,[8]; read-out: % Inhibition mean,10%
same,inhibition at 1 µM,[9]; read-out: % Inhibition Point 1,47%
same,inhibition at 1 µM,[9]; read-out: % Inhibition Point 2,47%
same,inhibition at 1 µM,[9]; read-out: % Inhibition mean,47%
same,inhibition at 1 µM,[10]; read-out: % Inhibition Point 1,0.45%
same,inhibition at 1 µM,[10]; read-out: % Inhibition Point 2,0.0147%
same,inhibition at 1 µM,[10]; read-out: % Inhibition mean,0.233%
same,inhibition at 1 µM,[11]; read-out: % Inhibition Point 1,5.46%
same,inhibition at 1 µM,[11]; read-out: % Inhibition Point 2,3.74%
same,inhibition at 1 µM,[11]; read-out: % Inhibition mean,4.6%
same,inhibition at 1 µM,[12]; read-out: % Inhibition Point 1,27%
same,inhibition at 1 µM,[12]; read-out: % Inhibition Point 2,30%
same,inhibition at 1 µM,[12]; read-out: % Inhibition mean,29%
same,inhibition at 1 µM,[13]; read-out: % Inhibition Point 1,4.46%
same,inhibition at 1 µM,[13]; read-out: % Inhibition Point 2,3.55%
same,inhibition at 1 µM,[13]; read-out: % Inhibition mean,4%
same,inhibition at 1 µM,[14]; read-out: % Inhibition Point 1,5%
same,inhibition at 1 µM,[14]; read-out: % Inhibition Point 2,4.68%
same,inhibition at 1 µM,[14]; read-out: % Inhibition mean,5%

# Source: paper PMC7614683, “A small molecule PI3Kα activator for cardioprotection and neuroregeneration” (Nature, 2023)
